Measurements reported in US8716558B2, “Method of altering glycosylation of proteins in response to nojirimycin glucuronide in a plant cell expressing glucuronidase” (Marker Gene Technologies, Inc., priority 1999, dated 2014).

Legend:
[1] = tested on: E. coli CSH36/S90C and CSH22/S90C co-culture; assay: Co-culture bystander effect, colony growth on X-gal plates; type: cell-based; settings: 10 μg/ml 5FUR or 16.2 μg/ml M0174, plated on X-gal
Procedure: E. coli strains CSH36/S90C and CSH22/S90C were grown in co-culture and tested with the 5FUR-galactoside conjugate described in Example 16, 5-fluorouridine-5′-O-β-D-galactopyranoside, (M0174) to show translocation of drug released in β-Gal expressing cells to other cells in the culture. CSH36 is a constitutive mutant for lacZ and therefore produces β-galactosidase regardless of induction conditions. CSH22 is a deletion mutant for lacZ and is therefore uninducible. Each strain individually and both strains together were innoculated into 10 mL aliquots of M9 minimal media and grown shaking at 37° C. overnight. Overnight cultures (500 μL) were transferred into 10 mL fresh M9 media and grown to logarithmic phase for 4 hours prior to beginning the experiments. 1 mL of this culture was transferred to 10 ml fresh M9 media containing 10 μg/ml 5-fluorouridine (5FUR), 16.2 μg/ml M0174, or no additions, and returned to the incubator. Growth curves were generated by removing aliquots of each culture at 30 minute intervals and reading absorbance at 420 nm. Remaining portions of these cultures were allowed to grow overnight, and final absorbance readings were taken. […] Plates were incubated at 37° C. for 48 hours, then evaluated for growth of white (indicating lacZ −, CSH22 cells) and blue (indicating lacZ+, CSH36 cells) colonies.

[2] = tested on: E. coli strains CSH23/S90C and CSH22/S90C; assay: Bacterial growth assay under non-inducing conditions (loss of activity upon conjugation); type: cell-based; settings: 10 μg/ml 5FUR or 16.2 μg/ml M0174, M9 media, FIG. 1
Procedure: E. coli strains CSH23/S90C and CSH22/S90C were tested with 5-fluorouridine (5FUR) and the 5FUR-galactoside conjugate described in Example 16, 5-fluorouridine-5′-O-β-D-galactopyranoside, (M0174) to confirm loss of biological activity upon conjugation. CSH23 is a strain inducible for lacZ expression; CSH22 is a deletion mutant for lacZ and is therefore uninducible. Other strains with these properties are commercially available. When grown under non-inducing conditions, neither strain will produce β-galactosidase. Each strain was innoculated into 10 mL M9 minimal media and grown in non-inducing conditions, shaking at 37° C. overnight. Overnight cultures (500 μL) were transferred into […] fresh M9 media and grown to logarithmic phase for 4 hours prior to beginning the experiments. 1 mL of this culture was transferred to 10 ml fresh M9 media containing 10 μg/ml 5FUR, 16.2 μg/ml M0174, or no additions, and returned to the incubator. Growth curves were generated by removing aliquots of each culture at 30 minute intervals and reading absorbance at 420 nm. All final data was run in duplicate trials.

[3] = tested on: D5 tumor cells lipofected with a lacZ containing vector; assay: In vivo pulmonary tumor growth, lipofected tumor cells; parameters: species or system C57/J(B6) mice
Procedure: To test the efficacy of pro-drug delivery in vivo for initiation and mediation of a host cellular immune response to genetically modified tumor, C57/J(B6) mice (22-36 g each) are injected intravenous with 50 μL HBBS containing 1×10^6 D5 tumor cells that are either untreated, lipofected with a vector containing the lacZ gene, lipofected with a vector containing both the lacZ and the H-2K allogeneic major histocompatability complex (MHC) class I gene (Wahl, et al, 1995), or lipofected with a vector containing the H-2K gene alone. After 2 days, accumulation of the tumor cells in the lung tissue is expected. Two animals are retained as controls, and necropsy examination and tumor staining of the lipofected animals is performed at the end of the trial, to confirm pulmonary tumor growth.
The doxorubicin-galactoside pro-drug of Example 19 is administered intraperitoneally starting at Day 3, for 20 days, to mice that received lipofected tumor cells in doses of either 5, 10 or 25 mg/kg/day, and to mice that received untreated tumor cells in doses of 50 mg/kg/day. Measurement of tumor growth is determined by necropsy examination of lung tissue and staining at day 25.

[4] = tested on: E. coli CSH36/S90C and CSH22/S90C co-culture; assay: Co-culture selection, colony growth on X-gal plates; type: cell-based; settings: 30 μg/ml chloramphenicol or 42 μg/ml M0165, plated on X-gal
Procedure: E. coli strains CSH36/S90C and CSH22/S90C were grown in co-culture and tested with the chloramphenicol galactoside pro-drug (M0165) described in Example 15, to show lack of translocation of drug released in β-galactosidase expressing cells to other cells in the culture, and therefore selection for the lacZ-cells. CSH36 is a constitutive mutant for lacZ and therefore produces β-galactosidase regardless of induction conditions. CSH22 is a deletion mutant for lacZ and is therefore uninducible. Each strain individually and both strains together were innoculated into 10 mL aliquots of M9 minimal media and grown shaking at 37° C. overnight. Overnight cultures (500 μL) were transferred into 10 mL fresh M9 media and grown to logarithmic phase for 4 hours prior to beginning the experiments. 1 mL of this culture was transferred to 10 ml fresh M9 media containing 30 μg/ml chloramphenicol, 42 μg/ml M0165, or no additions, and returned to the incubator. Growth curves were generated by removing aliquots of each culture at 30 minute intervals and reading absorbance at 420 nm. Remaining portions of the cultures were allowed to grow overnight, and final absorbance readings were taken. […] Plates were incubated at 37° C. for 48 hours, then evaluated for growth of white (indicating lacZ −, CSH22 cells) and blue (indicating lacZ +, CSH 36 cells) colonies.

[5] = tested on: D5 mouse melanoma tumors lipofected with a lacZ vector; assay: In vivo growth of subcutaneous tumors from lacZ-lipofected cells; parameters: species or system C57/J(B6) mice; settings: 25 and 50 mg/Kg/Day intraperitoneally for 4 days from Day 3
Procedure: (§1) The 5FUR-galactoside conjugate described in Example 16, 5-fluorouridine-5′-O-β-D-galactopyranoside (M0174) was tested to determine the reduction of tumor growth of subcutaneously implanted D5 mouse melanoma tumors that had been lipofected with a vector containing the lacZ marker gene in mice. […] C57/J(B6) mice (22-36 g each) were injected in the right flank with 50 μL HBBS containing 1×10^6D5 tumor cell that were either untreated or lipofected with a vector containing the lacZ gene. M0174 was administered intraperitoneally starting at Day 3, for 4 days, to mice that had received lipofected tumor cells in doses of either 25 or 50 mg/kg/day, and to mice that had received untreated tumor cells in doses of 100 mg/kg/day. Measurement of tumor area in mm^2 began on Day 8 and ended on Day 26. […] NO EFFECT (i.e. no significant drug release) for pro-drug on non-lipofected cells was found (even at 100 mg/Kg/Day), indicating once again a lack of biological activity for the pro-drug, M0174.

[6] = tested on: D5 mouse melanoma tumors (untreated cells); assay: In vivo growth of subcutaneous tumors from non-lipofected cells; parameters: species or system C57/J(B6) mice; settings: 100 mg/Kg/Day intraperitoneally for 4 days from Day 3
Procedure: as §1

[7] = tested on: D5 murine melanoma cells lipofected with pCMVβ (lacZ); assay: MTT cell proliferation assay, lacZ-lipofected tumor cells; type: cell-based
Procedure: (§2) For the MTT assay, cells are incubated with the MTT reagent, which is turned over by live cells to a purple MTT formazan product. Turnover is directly proportional to the number of live cells, enabling a proportional measurement of the number of cells to be achieved by measuring the production of MTT formazan. Media is removed from cells in the twelve well plate and replaced with DME containing 10 mM Hepes. 0.25 mL of a 2 mg/ml solution of MTT is then added to each well, and plates are covered and wrapped with aluminum foil and incubated at 37° C. for three hours. Plates are then emptied of the media MTT solution, and 1 mL of DMSO and 125 μL of Sorensens glycine buffer are added to each well to solubilize the MTT formazan product. Absorbence of each sample is measured against a DMSO blank at 570 nm.
(§3) Lipofection of D5 murine melanoma cells with the pCMVβ plasmid containing the lacZ gene provided a lacZ positive set of cells with transient but high levels of ? -galactosidase expression. A 60 mm plate of D5 cells, 80% confluent, was lipofected for 5 hours with 3.6 μg/ml pCMVB (a plasmid containing the lacZ gene)(CLONTECH) using 36 μL lipofectAmine reagent (Life Technologies, Gibco BRL). After lipofection, fresh media was added to the cells to dilute the lipofection reagent, and cells were grown for 2 days. A cover slip of the lipofected D5 cells was stained with X-gal and transfection efficiency was estimated at 70%. D5 and lipofected D5 cells were plated in 12 well plates at a density of 12×10^3 cells per well and incubated 6 hours. The 5FUR-galactoside conjugate described in Example 16, 5-fluorouridine-5′-O-β-D-galactopyranoside (M0174) was added to cells at various concentrations and cells were incubated 6 hours, after which the media was changed. Cells were allowed to grow another 36 hours, then the MTT assay was performed to estimate the number of living cells per well. Cell numbers were expressed as a percent of the number of cells in the control well. All assay points were performed in duplicate and averaged. […]

[8] = tested on: D5 murine melanoma cells; assay: MTT cell proliferation assay, non-lipofected tumor cells; type: cell-based
Procedure: as §2, §3

[9] = tested on: E. coli CSH36 (constitutive mutant for lacZ); assay: Bacterial growth with ONPG; type: cell-based; settings: CSH36, no IPTG, 0.3 mg/ml ONPG
Procedure: (§4) E. coli strains CSH36 and W3110 available from the ATCC, Manassas, Va. were tested with orthonitrophenyl β-D-galactopyranoside (ONPG), according to the procedure of Marsh, 1994, to confirm release of compound upon induction of β-galactosidase production. W3110 is a wild-type E. coli strain inducible for lacZ expression; CSH36 is a constitutive mutant for lacZ and therefore produces β-galactosidase regardless of induction conditions. Each strain was innoculated into 10 mL M9 minimal media and grown in non-inducing conditions, shaking at 37° C. overnight. W3110 was also innoculated into 10 mL M9 media containing 0.3 mM iso-propyl thiogalactoside (IPTG) (W3110i) to induce β-galactosidase production. Overnight cultures (500 μL) were transferred into 10 mL fresh M9 media (+/−IPTG) and grown to logarithmic phase for 4 hours prior to beginning the experiments. 1 mL of this culture was transferred to 10 ml fresh M9 media (+/−IPTG) containing 0.3 mg/ml ONPG or no additions, and returned to the incubator. Growth curves were generated by removing aliquots of each culture at 30 minute intervals and reading absorbance at 420 nm. All final data was run in duplicate trials (A and B). […] ONP is also toxic to the bacteria, and therefore growth was retarded in those cultures producing β-galactosidase and turning over ONPG to ONP (see below and FIG. 2).

[10] = tested on: E. coli W3110 (inducible for lacZ); assay: Bacterial growth with ONPG with or without IPTG induction; type: cell-based; settings: 0.3 mg/ml ONPG
Procedure: as §4

For `O=c1[nH]c(=O)n([C@@H]2O[C@H](CO)[C@@H](O)[C@H]2O)cc1F` [Example 5FUR, 5-fluorouridine, reference compound], the “colony growth after overnight co-culture” value [1] was “no growth of either cell type” and the “effect on growth (growth curves, absorbance at 420 nm)” value [2] was “significant decrease in growth”.

In the case of `COc1cccc2c1C(=O)c1c(O)c3c(c(OC4OC(CO)C(O)C(O)C4O)c1C2=O)C[C@@](OC1OC(CO)C(O)C(O)C1O)(C(C)=O)C[C@@H]3OC1CC(N)C(OC2OC(CO)C(O)C(O)C2O)CO1` (some centres unmarked) [Example 19], the “tumor growth in lung tissue (necropsy and staining at day 25)” value ([3]; 5, 10 or 25 mg/kg/day intraperitoneally for 20 days from Day 3) is reported as “Tumor regression” and the tumor burden ([3]; animals receiving both lacZ and H-2K gene) is reported as “lower tumor burden”.

`O=C(NC(COC1OC(CO)C(O)C(O)C1O)C(O)c1ccc([N+](=O)[O-])cc1)C(Cl)Cl` [Example M0165, D(−)-threo-2,2-dichloro-N-[β-hydroxy-α-(O-β-D-galactopyranosylmethyl)-β-(4-nitrophenyl)ethyl]acetamide] was tested, and the “colony growth after overnight co-culture” value [4] was “growth of only CSH22 cells”.

`O=c1[nH]c(=O)n([C@@H]2O[C@H](CO[C@@H]3O[C@H](CO)[C@H](O)[C@H](O)[C@H]3O)[C@@H](O)[C@H]2O)cc1F` [Example M0174, 5-Fluorouridine-5′-O-β-D-Galactopyranoside] was tested, and the “tumor growth (tumor area in mm^2, Day 8 to Day 26)” value [5] was “slight delay in tumor growth”, the “tumor growth (tumor area in mm^2, Day 8 to Day 26)” value [6] was “NO EFFECT” and the “colony growth after overnight co-culture” value [1] was “no growth of either cell type”. The activity at 0.3 µg/mL ([7]; Mus musculus, 0.3 ug/ml, 6 hours exposure, MTT after another 36 hours, read-out: D5 lipofected, % of control growth) was 48%, the activity at 5 µg/mL ([7]; Mus musculus, 5 ug/ml, 6 hours exposure, MTT after another 36 hours, read-out: D5 lipofected, % of control growth) was 22% and the “effect on cell growth” value ([7]; lipofected D5 cells) was “growth inhibited”. For the same compound, the “effect on growth (growth curves, absorbance at 420 nm)” value [2] was “very little effect”, the activity at 0.3 µg/mL ([8]; Mus musculus, 0.3 ug/ml, 6 hours exposure, MTT after another 36 hours, read-out: D5 % of control growth) was 110% and the activity at 5 µg/mL ([8]; Mus musculus, 5 ug/ml, 6 hours exposure, MTT after another 36 hours, read-out: D5 % of control growth) was 87.9%. For the same compound, the “effect on cell growth” value ([8]; non-lipofected cells, even at high dosage values) was “unaffected”.

For `O=[N+]([O-])c1ccccc1O[C@@H]1O[C@H](CO)[C@H](O)[C@H](O)[C@H]1O` [ONPG, orthonitrophenyl β-D-galactopyranoside], the “Doubling Time (min)” value [9] was “*not measurable”, the “time after start of experiments at which growth halted” value [9] was “*growth halted approximately 2 hours after start of experiments” and the “Doubling Time” value ([10]; W3110, 0.3 mM IPTG) was 215 min. The “Doubling Time” value ([10]; W3110, no IPTG) was 92 min.

For `O=C(N[C@H](CO)[C@H](O)c1ccc([N+](=O)[O-])cc1)C(Cl)Cl` [chloramphenicol, reference compound], the “colony growth after overnight co-culture” value [4] was “no growth of either cell type”.
